Experimental data taken from patent US9657009B2, “Heteroaryl substituted pyridyl compounds useful as kinase modulators” (BRISTOL-MYERS SQUIBB COMPANY, priority 2012, dated 2017).
Read-outs that look alike come from different tables or passages of the source.

Columns and labels:
IRAK4 = IRAK4 (Homo sapiens (Human), UniProt Q9NWZ3); experiment: IRAK4 Inhibition Assay; type: biochemical
Experimental: IRAK4 Inhibition Assay The assays were performed in U-bottom 384-well plates. […] The reaction was initiated by the combination of IRAK4 with substrates and test compounds. The reaction mixture was incubated at room temperature for 60 min. and terminated by adding 45 μL of 35 mM EDTA to each sample.

[1] = system: TLR2 induced IL-6 in peripheral blood mononuclear cells (PBMCs); experiment: PBMC TLR2 Induced IL-6 Assay; type: cell-based; conditions: lipoteichoic acid 10 μg/ml, IL-6 by ELISA; for IC50: values without asterisk, read-out: Cell IC50
Experimental: PBMC TLR2 Induced IL-6 Assay Peripheral blood mononuclear cells (PBMCs) were isolated from human blood containing the anti-coagulant EDTA (2.5 mM) by centrifugation over a FICOLL® gradient. […] At the end of the culture, plates were centrifuged at 1800 rpm for 10 minutes to pellet the cells. Supernatants were harvested and analyzed for IL-6 levels by ELISA (BD Biosciences, San Jose, Calif.).

[2] = ATP 500 μM; IRAK4 0.6 nM; 60 min at room temperature; read-out: IRAK4 IC50
[3] = human PBMCs, 5 hours, values marked * are EC50, read-out: Cell EC50 (*EC50)
[4] = read-out: IRAK4 IC50; ATP 500 μM; IRAK4 0.6 nM; 60 min at room temperature

IRAK4, sequence (Q9NWZ3 whole entry, species assumed): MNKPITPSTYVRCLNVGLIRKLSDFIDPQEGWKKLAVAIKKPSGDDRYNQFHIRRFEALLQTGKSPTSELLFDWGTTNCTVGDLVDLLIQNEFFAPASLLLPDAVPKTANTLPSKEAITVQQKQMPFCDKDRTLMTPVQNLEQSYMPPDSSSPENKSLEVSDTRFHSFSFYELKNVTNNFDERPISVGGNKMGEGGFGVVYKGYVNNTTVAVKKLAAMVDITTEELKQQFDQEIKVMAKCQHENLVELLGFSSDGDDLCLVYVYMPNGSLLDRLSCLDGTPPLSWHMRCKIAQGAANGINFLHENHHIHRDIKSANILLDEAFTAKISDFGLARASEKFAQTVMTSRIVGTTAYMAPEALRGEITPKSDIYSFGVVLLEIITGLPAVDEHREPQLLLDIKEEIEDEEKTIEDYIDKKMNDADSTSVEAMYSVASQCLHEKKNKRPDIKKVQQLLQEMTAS

## CC(C)(O)[C@H](F)CNC(=O)c1cnc(Nc2ncc(C#N)cn2)cc1N[C@H]1CCC[C@@H]1F [Example 54]
IRAK4; [2]
  IC50: 5.9 nM
[1]; human PBMCs, 5 hours
  IC50: 126 nM

## CC(C)(O)[C@H](F)CNC(=O)c1cnc(Nc2ncc(C#N)cn2)cc1N[C@H]1CCC[C@@H]1F [Example 55]
IRAK4; [2]
  IC50: 5 nM
[1]; human PBMCs, 5 hours
  IC50: 27 nM

## CC(C)(O)[C@H](F)CNC(=O)c1cnc(Nc2ncc(C#N)cc2Cl)cc1NC1CCC(F)C1 (stereo partly shown) [Example 57]
IRAK4; [2]
  IC50: 1.8 nM
[1]; [3]
  EC50: 68 nM

## CC(C)(O)[C@H](F)CNC(=O)c1cnc(Nc2ncc(C#N)cc2Cl)cc1NC1CCC(F)C1 (stereo partly shown) [Example 62]
IRAK4; [2]
  IC50: 1.7 nM
[1]; [3]
  EC50: 52 nM

## CC(C)(O)[C@H](F)CNC(=O)c1cnc(Nc2ncc(C#N)cc2Cl)cc1NC1CCCC1F (stereo partly shown) [Example 70]
IRAK4; [2]
  IC50: 3.2 nM
[1]; [3]
  EC50: 91 nM

## CC(C)(O)[C@H](F)CNC(=O)c1cnc(Nc2ncc(C#N)cc2Cl)cc1NC1CCCC1F (stereo partly shown) [Example 71]
IRAK4; [2]
  IC50: 2.8 nM
[1]; [3]
  EC50: 394 nM

## CC(C)(O)[C@H](F)CNC(=O)c1cnc(Nc2ncc(C#N)cc2Cl)cc1NC1CCCC1F (stereo partly shown) [Example 73]
IRAK4; [2]
  IC50: 1.5 nM
[1]; [3]
  EC50: 132 nM

## CC(C)(O)[C@H](F)CNC(=O)c1cnc(Nc2ncc(C#N)cc2Cl)cc1NC1CCCC1F (stereo partly shown) [Example 74]
IRAK4; [2]
  IC50: 2.7 nM
[1]; [3]
  EC50: 84 nM

## CC(C)(O)[C@H](F)CNC(=O)c1cnc(Nc2ncc(C#N)cc2Cl)cc1NC1CCCC1O (stereo partly shown) [Example 78]
IRAK4; [2]
  IC50: 3.7 nM
[1]; [3]
  EC50: 64 nM

## CC(C)(O)[C@H](F)CNC(=O)c1cnc(Nc2ncc(C#N)cc2F)cc1NC1CCC(F)C1 (stereo partly shown) [Example 82]
IRAK4; [2]
  IC50: 3 nM
[1]; [3]
  EC50: 105 nM

## CC(C)(O)[C@H](F)CNC(=O)c1cnc(Nc2ncc(C#N)cn2)cc1NC1CCC(F)C1 (stereo partly shown) [Example 87]
IRAK4; [2]
  IC50: 3.5 nM
[1]; [3]
  EC50: 197 nM

## CC(C)(O)[C@H](F)CNC(=O)c1cnc(Nc2ncc(C#N)cn2)cc1NC1CCC(F)C1 (stereo partly shown) [Example 88]
IRAK4; [2]
  IC50: 5.4 nM
[1]; [3]
  EC50: 266 nM

## CC(C)(O)[C@H](F)CNC(=O)c1cnc(Nc2ncc(F)cc2F)cc1NC1CCCOC1 (stereo partly shown) [Example 109]
IRAK4; [2]
  IC50: 13.7 nM
[1]; [3]
  EC50: 350 nM

## CC(C)(O)[C@H](F)CNC(=O)c1cnc(Nc2ncc(F)cc2F)cc1NC1CCCOC1 (stereo partly shown) [Example 110]
IRAK4; [2]
  IC50: 15.7 nM
[1]; [3]
  EC50: 705 nM

## CC(C)(O)[C@H](F)CNC(=O)c1cnc(Nc2ncc(C#N)cc2F)cc1NC1CCC(F)C1 (stereo partly shown) [Example 115]
IRAK4; [2]
  IC50: 4.5 nM
[1]; [3]
  EC50: 65 nM

## CC(C)(O)[C@H](F)CNC(=O)c1cnc(Nc2ncc(C#N)cc2Cl)cc1Nc1cccc(C(N)=O)c1 [Example 143]
IRAK4; [2]
  IC50: 2.9 nM

## CC(C)Nc1cc(Nc2ncc(C#N)cc2F)ncc1C(=O)NC1CCC(C(C)(O)C2CC2)CC1 (stereo not shown) [Example 144]
IRAK4; [4]
  IC50: 7.8 nM

## CC(C)Nc1cc(Nc2ncc(C#N)cc2F)ncc1C(=O)NC1CCC(C(C)(O)C2CC2)CC1 (stereo not shown) [Example 145]
IRAK4; [4]
  IC50: 4.3 nM
[1]; [3]
  EC50: 275 nM

## Cn1nnnc1-c1cccc(Nc2cc(Nc3ncc(C#N)cc3Cl)ncc2C(=O)NC[C@@H](F)C(C)(C)O)c1 [Example 146]
IRAK4; [2]
  IC50: 8.5 nM

## Cn1nnnc1-c1ccc(Nc2cc(Nc3ncc(C#N)cn3)ncc2C(=O)NC[C@@H](F)C(C)(C)O)cc1 [Example 147]
IRAK4; [2]
  IC50: 12.4 nM

## Cn1nnnc1-c1ccc(Nc2cc(Nc3ncc(C#N)cc3Cl)ncc2C(=O)NC[C@@H](F)C(C)(C)O)cc1 [Example 148]
IRAK4; [2]
  IC50: 3.4 nM

## CS(=O)(=O)[C@H]1CC[C@H](NC(=O)c2cnc(Nc3ncc(C#N)cc3Cl)cc2NC2CCOCC2)CC1 [Example 149]
IRAK4; [2]
  IC50: 3 nM

## CC(C)(O)[C@H](F)CNC(=O)c1cnc(Nc2ncc(C#N)cc2Cl)cc1N[C@H]1CC[C@](C)(O)CC1 [Example 150]
IRAK4; [2]
  IC50: 1.4 nM

## CS(=O)(=O)[C@H]1CC[C@H](NC(=O)c2cnc(Nc3ncc(C#N)cc3Cl)cc2NC2CC2)CC1 [Example 151]
IRAK4; [2]
  IC50: 3.3 nM

## CC(C)(O)[C@H](F)CNC(=O)c1cnc(Nc2ncc(C#N)cc2Cl)cc1N[C@H]1CC[C@@](C)(O)CC1 [Example 152]
IRAK4; [2]
  IC50: 5.3 nM

## CC(C)(O)[C@H](F)CNC(=O)c1cnc(Nc2ncc(C#N)cc2Cl)cc1Nc1ccc2ncsc2c1 [Example 153]
IRAK4; [2]
  IC50: 5.6 nM

## CC(C)(O)[C@H](F)CNC(=O)c1cnc(Nc2ncc(C#N)c(N)n2)cc1NC1CC1 [Example 154]
IRAK4; [2]
  IC50: 5.2 nM

## CC(C)CNc1cc(Nc2ncc(C#N)cc2Cl)ncc1C(=O)NC[C@@H](F)C(C)(C)O [Example 155]
IRAK4; [2]
  IC50: 4.3 nM

## CC(C)Nc1cc(Nc2ncc(C#N)cc2Cl)ncc1C(=O)NC[C@H](F)C(C)(C)O [Example 156]
IRAK4; [2]
  IC50: 8.6 nM

## CC(C)(O)[C@H](F)CNC(=O)c1cnc(Nc2ncc(C#N)cc2Cl)cc1NC1CCC(F)C1 (stereo partly shown) [Example 157]
IRAK4; [2]
  IC50: 2 nM
[1]; Homo sapiens, PBMC, 5 h, values marked * are EC50, read-out: Cell EC50 (*EC50)
  EC50: 71 nM

## CC(C)(O)[C@H](F)CNC(=O)c1cnc(Nc2ncc(C#N)cc2Cl)cc1NC1CCC(F)C1 (stereo partly shown) [Example 158]
IRAK4; [2]
  IC50: 2.3 nM
[1]; [3]
  EC50: 102 nM

## CC(F)[C@@H](C)Nc1cc(Nc2ncc(C#N)cc2Cl)ncc1C(=O)NC[C@@H](F)C(C)(C)O (stereo partly shown) [Example 159]
[1]; [3]
  EC50: 130 nM

## CC(F)[C@@H](C)Nc1cc(Nc2ncc(C#N)cc2Cl)ncc1C(=O)NC[C@@H](F)C(C)(C)O (stereo partly shown) [Example 160]
[1]; [3]
  EC50: 846 nM

## CS(=O)(=O)[C@H]1CC[C@H](NC(=O)c2cnc(Nc3ncc(C#N)cc3F)cc2Nc2cccc(C(N)=O)c2)CC1 [Example 161]
IRAK4; [2]
  IC50: 15.5 nM

## CC(C)(O)[C@H](F)CNC(=O)c1cnc(Nc2ncc(C#N)cc2Cl)cc1Nc1cccc(C#N)c1 [Example 162]
IRAK4; [2]
  IC50: 2.6 nM

## CC(Nc1cc(Nc2ncc(C#N)cn2)ncc1C(=O)NC[C@@H](F)C(C)(C)O)C1CC1 (stereo partly shown) [Example 163]
IRAK4; [2]
  IC50: 10.2 nM

## CC(C)(O)[C@H](F)CNC(=O)c1cnc(Nc2ncc(C#N)cc2F)cc1NC1COC1 [Example 164]
IRAK4; [2]
  IC50: 8 nM

## COC(=O)N[C@H]1CC[C@H](NC(=O)c2cnc(Nc3ncc(C#N)cc3F)cc2NC(C)C)CC1 [Example 165]
IRAK4; [2]
  IC50: 11.3 nM

## CC(C)Nc1cc(Nc2ncc(C#N)cc2F)ncc1C(=O)NC1CCC(O)(c2ccnn2C)CC1 (stereo not shown) [Example 166]
IRAK4; [2]
  IC50: 8.2 nM

## CC(C)Nc1cc(Nc2ncc(C#N)cc2F)ncc1C(=O)NC1CCC(O)(c2nccs2)CC1 (stereo not shown) [Example 167]
IRAK4; [2]
  IC50: 13 nM
